# From patent publication US8093060B2, “Multisite phosphorylated peptide (protein) recognizing compound and detection method, imaging method, alzheimer's disease diagnosing method and reagent kit using the same” (Canon Kabushiki Kaisha, priority 2008, dated 2012)
# Entries after “also recorded” stand apart in the source; their conditions may differ.
# Assays:
# Tau2P = molecular target: T1, Tau2P (Homo sapiens, UniProt P10636); assay: Fluorescence titration of BODIPY-Zn(Dpa) with Tau2P; assay type: binding; details: Tau 2P (i, i+4)
# T1 construct: made in house; host or cells: chemical solid-phase synthesis
# Method: (§1) The phosphorylated peptide-recognizing ability of BODIPY-Zn(Dpa) compound 9 (hereinafter referred to as BODIPY-Zn(Dpa)) was evaluated by measuring fluorescence spectra. Measurement was performed under the following conditions: [BODIPY-Zn(Dpa)]=5 μM; pH 7.2; 50 mM HEPES buffer; and 25° C. The excitation wavelength was λex=530 nm. […] When Tau2P was excessively added, this change reached saturation. The […] calculated from the fluorescence changes was 2.75×10^5 M^−1.
# GSK-3β = assay: Kinase assay using BODIPY-Zn(Dpa), Tau1P and GSK-3β; assay type: biochemical
# Method: A kinase assay was performed using Tau1P, a phosphorylated partial sequence peptide of a tau protein, BODIPY-Zn(Dpa) and GSK-3β, which phosphorylates the 231st threonine. The experiment conditions were as follows: 20 μM Tau1P, 20 μM BODIPY-Zn(Dpa), 100 μM ATP, 2 μg of BSA, 50 mM HEPES, 10 mM MgCl2, 10 mM DTT, 2 μM EDTA; pH 7.2; 30° C.; and an excitation wavelength of 540 nm. […] This is a result of phosphorylation of the 231st threonine in Tau1P by GSK-3β, recognition of the phosphorylation by BODIPY-Zn(Dpa) and the resulting interaction.
# tau aggregate = molecular target: T2, tau aggregate (Homo sapiens, UniProt P10636); assay: Fluorescence titration of tau aggregate against 100 nM BODIPY-Zn(Dpa); assay type: binding; details: tau 0 to 320 nM against 100 nM BODIPY-Zn(Dpa), 37° C., 60 min
# T2 construct: made in house; host or cells: Escherichia coli
# Method: (§2) The ranges of concentrations at which a phosphorylated tau aggregate, a tau aggregate, and an amyloid β aggregate interact with BODIPY-Zn(Dpa) were examined by titration. Titration was performed in the range of tau concentrations of 0 to 320 nM (0 to 14 μg/mL) against 100 nM of BODIPY-Zn(Dpa). Using a solvent obtained by adding 10% DMSO and 10 μM Zn(NO3)2 to HBS (10 mM HEPES (pH 7.4), 150 mM NaCl), the solution was incubated at 37° C. for 60 min, and fluorescence was measured (excitation wavelength, 490 nm; fluorescence wavelength, 545 nm).
# [1] = Delivery of BODIPY-Zn(Dpa) into brain after intravenous administration; assay type: in vivo, ICR mouse; details: i.v. 1 mg/kg; for percent of the dose per gram of the mouse brain: rounded; for content in the brain / content in the brain based on the dose: mouse
# Method: BODIPY-Zn(Dpa) was intravenously administered to an ICR mouse (male, 7 weeks old) to measure the delivery thereof into the brain in vivo. Specifically, BODIPY-Zn(Dpa) (400 μL of 50 μM HBS solution) was injected from the caudal vein at a dose of 1 mg/kg, and the brain was collected at 2 or 30 min after administration. The collected brain (424 to 488 mg) was homogenized in 3 mL of an HBS solution using a spatula and homogenized by ultrasonic irradiation. BODIPY-Zn(Dpa) contained in the brain was quantified by reverse-phase HPLC to obtain the content of BODIPY-Zn(Dpa) in the brain based on the dose (% ID/g: % injected dose per gram of the brain). Fluorescence from the compound (excitation, 520 nm; fluorescence, 545 nm) was utilized for detection by HPLC.
# [2] = molecular target: T3, phosphorylated tau aggregate (p-Tau) (Homo sapiens, UniProt P10636); assay: Fluorescence staining of phosphorylated tau aggregate prepared in vitro; assay type: binding
# T3 construct: made in house; host or cells: Escherichia coli
# Method: Tau proteins (8 μM) expressed by Escherichia coli and heparin (1.6 μM) were incubated at 37° C. for 20 days to prepare a tau aggregate. A phosphorylated tau aggregate was similarly prepared using tau proteins phosphorylated with GSK-3β in vitro. The results of Pro-Q diamond staining after performing SDS-PAGE confirmed that the in-vitro phosphorylation was performed with a phosphorylation degree of 6 mol P/mol Tau.
# 10 μM BODIPY-Zn(Dpa) or 10 μM thioflavine T (may be referred to as ThT) were added to the prepared tau aggregate or phosphorylated tau aggregate. After the addition, the mixture was washed twice with 0.5 mM Zn(NO3)2, and a suspension (0.5 μL) of the stained phosphorylated tau aggregate was air-dried on a cover glass and observed under a confocal laser scanning microscope (OLYMPUS FV-1000, Obj. lens 100×).
# Tau204-2162P = molecular target: T4, Tau204-2162P (Homo sapiens, UniProt P10636); assay: Fluorescence titration of BODIPY-Zn(Dpa) with Tau204-2162P (i, i+6); assay type: binding
# T4 construct: made in house; host or cells: chemical solid-phase synthesis
# Method: as §1
# Fluorescence changes when peptide Tau204-2163P or Tau204-2162P used in Example 1 was added dropwise were measured to calculate the affinity (association constant).
# [3] = molecular target: T5, phosphorylated tau aggregate (Homo sapiens, UniProt P10636); assay: Fluorescence titration of phosphorylated tau aggregate against 100 nM BODIPY-Zn(Dpa); assay type: binding; details: compared with tau aggregate and amyloid β aggregate
# T5 construct: made in house; host or cells: Escherichia coli
# Method: as §2
# T3 sequence (P10636 1-441 isoform P10636-8): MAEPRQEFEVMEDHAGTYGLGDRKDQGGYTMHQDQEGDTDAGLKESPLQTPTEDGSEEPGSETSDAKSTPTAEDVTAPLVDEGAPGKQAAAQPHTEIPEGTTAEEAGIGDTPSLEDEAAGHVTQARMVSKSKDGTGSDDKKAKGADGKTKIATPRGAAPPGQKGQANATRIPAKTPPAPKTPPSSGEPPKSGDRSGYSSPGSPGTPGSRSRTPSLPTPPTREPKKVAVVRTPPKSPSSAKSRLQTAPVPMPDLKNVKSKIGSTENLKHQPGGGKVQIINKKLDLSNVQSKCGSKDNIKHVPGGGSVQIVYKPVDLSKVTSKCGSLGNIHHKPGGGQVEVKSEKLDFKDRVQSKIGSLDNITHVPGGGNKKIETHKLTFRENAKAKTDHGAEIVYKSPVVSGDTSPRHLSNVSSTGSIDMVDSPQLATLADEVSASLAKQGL
# T2 sequence (P10636 1-441 isoform P10636-8): as above
# T5 sequence (P10636 1-441 isoform P10636-8): as above
structure (smiles),measurement,setting,value
CC1=C(c2ccc(CN(C)Cc3ccccn3)nc2)C(C)=[N+]2C1=C(c1cc(OCCOCCOCCO)cc(OCCOCCOCCO)c1)c1c(C)c(-c3ccc(CN(C)Cc4ccccn4)nc3)c(C)n1[B-]2(F)F.O=[N+]([O-])[O-].O=[N+]([O-])[O-].O=[N+]([O-])[O-].O=[N+]([O-])[O-].[Zn+2].[Zn+2] [BODIPY-Zn(Dpa)],I/I0 - 1 at saturation,"Tau2P; BODIPY-Zn(Dpa) 5 μM, pH 7.2, 25° C.",0.55
same,Association constant,Tau2P; calculated from fluorescence changes,275000 M⁻¹
same,fluorescence intensity change with time,"GSK-3β; 20 μM Tau1P, 20 μM BODIPY-Zn(Dpa), 100 μM ATP, 30° C.",increase in fluorescence intensity with time was confirmed
same,kinase concentration dependence of fluorescence intensity,GSK-3β; GSK-3β concentration varied,concentration-dependence of GSK-3β was observed
same,concentration range of interaction,tau aggregate,in the range of nM
same,percent of the dose per gram of the mouse brain,[1]; 2 min after administration,0.5%
same,percent of the dose per gram of the mouse brain,[1]; 30 min after administration,0.02%
same,content in the brain,[1]; 2 min after administration,99.3 pmol/g brain
same,content in the brain based on the dose,[1]; 2 min after administration,0.496 % ID/g
same,content in the brain,[1]; 30 min after administration,3.96 pmol/g brain
same,content in the brain based on the dose,[1]; 30 min after administration,0.020 % ID/g
same,staining of aggregate,[2]; p-Tau in the presence of pyrophosphoric acid (PPi),did not stain the aggregate
same,staining of aggregate,"[2]; p-Tau, 10 μM dye",could bind to and stain the p-Tau aggregate
same,I/I0 - 1 at saturation,"Tau204-2162P; Tau204-216 2P (i, i+6)",No change
same,detection of / interaction with peptide by fluorescence change,"Tau204-2162P; Tau204-2162P (i, i+6)",could not be detected; also recorded: did not interact
same,concentration at which fluorescence change occurred,[3],at the lowest concentration
